Data published in article PMC9138505, “Small Molecule 20S Proteasome Enhancer Regulates MYC Protein Stability and Exhibits Antitumor Activity in Multiple Myeloma” (Biomedicines, 2022).
“And” between values parts separate entries of the source, which are not always exact repeats. Identical values can stand only once.

Test system: RPMI-8226 cells
Test: Gene expression profiling, NanoString nCounter PanCancer Pathways Panel, ROSALIND analysis
Format: cell-based, human
Conditions: RPMI-8226, TCH-165 samples 1-3
Protocol: RPMI-8226 cells were treated with vehicle or TCH-165 (10 μM) for 4 h. Total RNA was obtained using the mirVana miRNA Isolation Kit, with phenol (Thermofisher Scientific; AM1560; Waltham, MA, USA). Total RNA was quantified by Qubit (Thermofisher Scientific; Q32855; Waltham, MA, USA). and gene expression was evaluated against the nCounter® PanCancer Pathways Panel^TM according to the standard NanoString protocol.
Data were analyzed by ROSALIND® [36] with a hyperscale architecture developed by ROSALIND, Inc. (San Diego, CA, USA). Normalization, fold changes and p-values were calculated using criteria provided by NanoString. ROSALIND follows the nCounter® Advanced Analysis protocol of dividing counts within a lane by the geometric mean of the normalizer probes from the same lane. Housekeeping probes to be used for normalization are selected based on the geNorm algorithm, as implemented in the NormqPCR R library. Fold changes and p-values are calculated using the fast method as described in the nCounter Advanced Analysis 2.0 User Manual. The p-value adjustment is performed using the Benjamini–Hochberg method of estimating false discovery rates (FDR). Clustering of genes for the final heatmap of differentially expressed genes was done using the PAM (Partitioning Around Medoids) method using the fpc R library. Hypergeometric distribution was used to analyze the enrichment of pathways, gene ontology, domain structure and other ontologies. The topGO R library was used to determine local similarities and dependencies between GO terms in order to perform Elim pruning correction. Several database sources were referenced for enrichment analysis, including Interpro [40], NCBI [41], MSigDB [42, 43], REACTOME [44], WikiPathways. Enrichment was calculated relative to a set of background genes relevant to the experiment.

## CCOC(=O)[C@]1(c2ccccc2)N=C(c2ccc(OC)cc2)N(Cc2ccccc2)[C@@H]1c1ccc(NCc2ccccc2)cc1 [TCH-165]
  ABL1 normalized gene expression: 8.417 and 8.4055 and 8.194
  ACVR1B normalized gene expression: 5.827 and 5.592 and 5.805
  ACVR2A normalized gene expression: 6.629 and 6.427 and 6.2646
  AKT1 normalized gene expression: 9.563 and 9.727 and 9.565
  AKT2 normalized gene expression: 9.573 and 9.603 and 9.59
  AKT3 normalized gene expression: 5.86 and 5.739 and 5.506
  ALK normalized gene expression: 5.044 and 4.427 and 3.805
  AMH normalized gene expression: 4.488 and 4.27 and 3.291
  ANGPT1 normalized gene expression: 7.445 and 7.284 and 7.245
  APC normalized gene expression: 7.784 and 7.6193 and 7.522
  AR normalized gene expression: 4.723 and 4.093 and 4.653
  ARID1A normalized gene expression: 9.641 and 9.688 and 9.749
  ARNT2 normalized gene expression: 5.61 and 5.297 and 5.0068
  ATM normalized gene expression: 8.202 and 8.069 and 8.0531
  ATR normalized gene expression: 9.3284 and 9.349 and 9.258
  ATRX normalized gene expression: 10.3284 and 10.1666 and 10.2009
  AXIN1 normalized gene expression: 8.978 and 8.914 and 8.769
  AXIN2 normalized gene expression: 4.308 and 4.3768 and 4.39
  B2M normalized gene expression: 16.2154 and 16.1625 and 16.1882
  BAD normalized gene expression: 9.483 and 9.357 and 9.442
  BAIAP3 normalized gene expression: 6.488 and 5.962 and 5.926
  BAMBI normalized gene expression: 6.259 and 6.476 and 6.341
  BAP1 normalized gene expression: 8.78 and 8.732 and 8.643
  BAX normalized gene expression: 9.129 and 9.1412 and 9.225
  BCL2A1 normalized gene expression: 5.758 and 5.547 and 5.712
  BCL2L1 normalized gene expression: 10.1011 and 10.0891 and 10.0785
  BCL2 normalized gene expression: 9.695 and 9.7506 and 9.653
  BCOR normalized gene expression: 9.105 and 9.1915 and 9.017
  BDNF normalized gene expression: 5.044 and 4.739 and 5.0068
  BID normalized gene expression: 7.087 and 7.045 and 6.9095
  BIRC3 normalized gene expression: 5.924 and 5.759 and 5.5707
  BMP2 normalized gene expression: 5.259 and 4.7789 and 5.156
  BMP4 normalized gene expression: 3.86 and 2.891 and 3.0682
  BMP5 normalized gene expression: 5.758 and 5.124 and 4.653
  BMP6 normalized gene expression: 7.818 and 7.896 and 7.955
  BMP7 normalized gene expression: 8.639 and 8.544 and 8.563
  BMPR1B normalized gene expression: 5.53 and 5.476 and 5.592
  BNIP3 normalized gene expression: 9.175 and 9.079 and 9.173
  BRAF normalized gene expression: 8.142 and 7.966 and 8.109
  BRCA1 normalized gene expression: 10.3606 and 10.2785 and 10.3058
  BRCA2 normalized gene expression: 8.271 and 8.2205 and 8.187
  CACNA1C normalized gene expression: 4.649 and 4.029 and 4.291
  CACNA1D normalized gene expression: 7.445 and 7.37 and 7.163
  CACNA1E normalized gene expression: 5.723 and 5.124 and 4.876
  CACNA1G normalized gene expression: 4.649 and 4.093 and 4.483
  CACNA1H normalized gene expression: 5.259 and 4.3768 and 4.483
  CACNA2D1 normalized gene expression: 4.986 and 5.0613 and 5.2646
  CACNB2 normalized gene expression: 4.986 and 4.739 and 4.975
  CACNB3 normalized gene expression: 5.308 and 5.154 and 5.592
  CACNB4 normalized gene expression: 5.208 and 4.996 and 4.841
  CACNG1 normalized gene expression: 4.793 and 4.093 and 4.1271
  CACNG4 normalized gene expression: 6.629 and 6.927 and 6.75
  CALML3 normalized gene expression: 4.986 and 4.476 and 4.528
  CALML5 normalized gene expression: 4.924 and 3.739 and 3.291
  CAMK2B normalized gene expression: 5.156 and 4.029 and 4.1271
  CAPN2 normalized gene expression: 4.488 and 4.7789 and 4.653
  CASP3 normalized gene expression: 9.077 and 9.095 and 9.024
  CASP7 normalized gene expression: 7.9 and 7.832 and 7.858
  CASP8 normalized gene expression: 10.5065 and 10.4134 and 10.4228
  CASP9 normalized gene expression: 7.015 and 7.5638 and 7.592
  CASP10 normalized gene expression: 6.044 and 5.524 and 5.316
  CBL normalized gene expression: 6.94 and 6.657 and 6.805
  CBLC normalized gene expression: 2.723 and 1.891 and 3.0682
  CCNA1 normalized gene expression: 5.355 and 4.996 and 4.769
  CCNA2 normalized gene expression: 11.2764 and 11.2603 and 11.2666
  CCNB1 normalized gene expression: 12.2985 and 12.3229 and 12.3132
  CCND1 normalized gene expression: 7.343 and 7.069 and 7.218
  CCND2 normalized gene expression: 11.5762 and 11.5571 and 11.5967
  CCND3 normalized gene expression: 7.732 and 7.547 and 7.5547
  CCNE1 normalized gene expression: 7.001 and 7.297 and 7.31
  CCNE2 normalized gene expression: 8.015 and 7.524 and 7.638
  CCNO normalized gene expression: 5.156 and 4.093 and 4.0682
  CCR7 normalized gene expression: 3.723 and 3.817 and 3.483
  CD14 normalized gene expression: 5.53 and 5.402 and 5.437
  CD19 normalized gene expression: 4.571 and 4.476 and 4.184
  CD40 normalized gene expression: 6.86 and 6.729 and 6.901
  CDC6 normalized gene expression: 11.1861 and 11.1846 and 11.1724
  CDC7 normalized gene expression: 7.884 and 7.9093 and 7.845
  CDC14A normalized gene expression: 6.308 and 6.012 and 6.038
  CDC14B normalized gene expression: 5.86 and 5.891 and 6.0224
  CDC25A normalized gene expression: 8.686 and 8.482 and 8.39
  CDC25B normalized gene expression: 9.593 and 9.697 and 9.611
  CDC25C normalized gene expression: 8.406 and 8.5 and 8.492
  CDH1 normalized gene expression: 5.355 and 5.891 and 5.673
  CDK2 normalized gene expression: 8.944 and 8.829 and 8.792
  CDK4 normalized gene expression: 10.4105 and 10.495 and 10.3803
  CDK6 normalized gene expression: 9.974 and 9.747 and 9.87
  CDKN1A normalized gene expression: 7.714 and 7.882 and 7.792
  CDKN1B normalized gene expression: 7.835 and 7.891 and 7.722
  CDKN1C normalized gene expression: 7.81 and 7.789 and 7.581
